Laboratory results taken from patent US20140106354A1, “Method of Diagnosing Cancer” (GARVAN INSTITUTE OF MEDICAL RESEARCH, priority 2011, published 2014).

Assays:
Assay type in all cases: cell-based, human
A2780 cells = test: Pharmacological reactivation of methylated genes by 5-Aza-dC, Affymetrix U133 plus 2 expression arrays, A2780; details: A2780, 5 μM, 24 hours
Method: (§1) Experiments were performed in triplicate using ovarian cancer cell lines A2780 and CaOV3, derived from primary Type II EOC. Cell lines were treated at 30% confluence with 5 μM and 2.5 μMrespectively (concentrations previously optimized to minimize cellular toxicity, data not shown), with the DNA methyltransferase inhibitor 5-aza-2′ deoxycytidine (5-Aza-dC), (Sigma Aldrich, St. Louis Mo., USA) for 24 hours. Cells were then expanded to 90% confluency, media changed every 24 hr before extracting RNA (RNeasy, Qiagen). As a positive control, re-expression and DNA demethylation for the methylated gene DLEC1 was verified by qPCR and clonal bisulphite sequencing.
(§2) Total RNA from A2780 and CaOV3 cell lines, plus and minus treatment with 5-Aza-dC was characterized on the Agilent bioanalyzer RNA nano chip (Agilent, Foster City Calif., USA) for an RNA integrity number (RIN) of >9.0, labeled and hybridized to Affymetrix human genome U133 plus 2 GeneChips essentially according to manufacturer's instructions. The GeneChip scans were analyzed by GCOS (Affymetrix) and resulting probeset intensities normalized by the robust multi-array average (RMA) method (Irizarry, et al., Biostatistics 4: 249-264, 2003). […] The data were normalized separately for each cell line and robust multichip average (RMA) values for analysis were imported into Genespring GX 7.3. Genes re-expressed by 5-Aza-dC were identified as “absent” (undetectable) in all three replicate untreated samples and “present” or “marginal” (detectable) in two of three replicate 5-Aza-dC treated samples.
(§3) Three steps were implemented to identify aberrantly silenced and methylated genes in EOC. First, to identify genes potentially silenced by DNA methylation, genome wide epigenetic reexpression profiles were generated for two ovarian cancer cell lines. […] Genes showing potential methylation-based silencing were identified if they were undetectable in the untreated cells, but re-expressed by 5-Aza-dC treatments. Using these criteria 947 and 1091 probesets were identified in A2780 and CaOV3 cells respectively, that were reactivated.

CaOV3 cells = test: Pharmacological reactivation of methylated genes by 5-Aza-dC, Affymetrix U133 plus 2 expression arrays, CaOV3; details: CaOV3, 2.5 μM, 24 hours
Method: as §1, §2, §3

DLEC1 = test: Positive control: re-expression and demethylation of DLEC1 (qPCR, clonal bisulphite sequencing); details: A2780 and CaOV3 cells treated with 5-Aza-dC
Method: as §1

Nc1ncn([C@H]2C[C@H](O)[C@@H](CO)O2)c(=O)n1 [5-Aza-dC, 5-aza-2′ deoxycytidine]
probesets reactivated (undetectable in untreated cells, re-expressed by 5-Aza-dC) (A2780 cells; HGU133 plus 2.0): 947 probesets | Fold Change 5-aza-dC vs (A2780 cells; ARMXC1 mRNA, probeset 218694_at): 1.19 | Fold Change 5-aza-dC vs (A2780 cells; HSPA2 mRNA, probeset 211538_s_at): 33.78 | Fold Change 5-aza-dC vs (A2780 cells; IL18 mRNA, probeset 206295_at): 1.20 | Fold Change 5-aza-dC vs (A2780 cells; LTBP2 mRNA, probeset 223690_at): 1.57 | Fold Change 5-aza-dC vs (A2780 cells; PAPLN mRNA, probeset 226435_at): 2.78 | Fold Change 5-aza-dC vs (A2780 cells; PARVA mRNA, probeset 222454_s_at): 1.78 | Fold Change 5-aza-dC vs (A2780 cells; PEG3 mRNA, probeset 209242_at): 3.87 | Fold Change 5-aza-dC vs (A2780 cells; PYCARD mRNA, probeset 221666_s_at): 3.72 | Fold Change 5-aza-dC vs (A2780 cells; SCIN1 mRNA, probeset 1552365_at): 1.28 | Fold Change 5-aza-dC vs (A2780 cells; SGNE1 mRNA, probeset 203889_at): 4.15 | Fold Change 5-aza-dC vs (A2780 cells; SOCS1 mRNA, probeset 210001_s_at): 4.80 | Fold Change 5-aza-dC vs (A2780 cells; SPOCK2 mRNA, probeset 202524_s_at): 1.41 | Fold Change 5-aza-dC vs (A2780 cells; ZNF177 mRNA, probeset 207417_s_at): 1.61 | Fold Change 5-aza-dC vs (A2780 cells; ZNF542 mRNA, probeset 239250_at): 2.35 | Fold Change 5-aza-dC vs (CaOV3 cells; BMP6 mRNA, probeset 206176_at): 1.25 | Fold Change 5-aza-dC vs (CaOV3 cells; CST6 mRNA, probeset 231248_at): 1.96 | probesets reactivated (undetectable in untreated cells, re-expressed by 5-Aza-dC) (CaOV3 cells; HGU133 plus 2.0): 1091 probesets | Fold Change 5-aza-dC vs (CaOV3 cells; ICAM4 mRNA, probeset 207194_s_at): 1.89 | Fold Change 5-aza-dC vs (CaOV3 cells; KLF4 mRNA, probeset 220266_s_at): 3.78 | Fold Change 5-aza-dC vs (CaOV3 cells; LOC134466 RNA, probeset 244289_at): 1.18 | Fold Change 5-aza-dC vs (CaOV3 cells; PTGER mRNA, probeset 213933_at): 1.32 | Fold Change 5-aza-dC vs (CaOV3 cells; TLE4 mRNA, probeset 204872_at): 1.20 | re-expression and demethylation of the methylated gene DLEC1 (DLEC1): induce re-expression and demethylation
